Measurements published in PubChem BioAssay AID212 (DTP/NCI, 2004).
Values joined by “and” are separate entries in the source; they are usually repeats but may differ in a detail not shown here. Equal values may be shown once. Inconclusive results are not listed.

Tested on: BDF1 mice, colon carcinoma 38 sc, T/C %
Experiment: NCI In Vivo Anticancer Drug Screen. Data for tumor model Colon Carcinoma 38 (subcutaneous) in B6D2F1 (BDF1) mice
Details: endpoint: median tumor weight (est.), higher = larger tumour
In short: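 Transplantable tumor in mice; compound-treated vs vehicle-dosed controls. Measured survival or tumor size; value = T ÷ C.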

[1] = dose: 12.5 mg/kg/injection, schedule: Q07DX002 (ip), vehicle: saline with Tween-80
[2] = dose: 25.0 mg/kg/injection, schedule: Q07DX002 (ip), vehicle: saline with Tween-80
[3] = dose: 50.0 mg/kg/injection, schedule: Q07DX002 (ip), vehicle: saline with Tween-80
[4] = dose: 50.0 mg/kg/injection, schedule: Q07DX002 (ip), vehicle: saline
[5] = dose: 100.0 mg/kg/injection, schedule: Q07DX002 (ip), vehicle: saline with Tween-80
[6] = dose: 100.0 mg/kg/injection, schedule: Q07DX002 (ip), vehicle: saline
[7] = dose: 200.0 mg/kg/injection, schedule: Q07DX002 (ip), vehicle: saline with Tween-80
[8] = dose: 200.0 mg/kg/injection, schedule: Q07DX002 (ip), vehicle: saline
[9] = dose: 200.0 mg/kg/injection, schedule: Q07DX002 (ip), vehicle: suspension in saline
[10] = dose: 400.0 mg/kg/injection, schedule: Q07DX002 (ip), vehicle: saline
[11] = dose: 400.0 mg/kg/injection, schedule: Q07DX002 (ip), vehicle: suspension in saline
[12] = dose: 100.0 mg/kg/injection, schedule: Q07DX002 (ip), vehicle: Klucel (hydroxypropylcellulose) (HPC)
[13] = dose: 200.0 mg/kg/injection, schedule: Q07DX002 (ip), vehicle: Klucel (hydroxypropylcellulose) (HPC)
[14] = dose: 400.0 mg/kg/injection, schedule: Q07DX002 (ip), vehicle: Klucel (hydroxypropylcellulose) (HPC)

With `Cc1c2ccc3ccccc3c2c[n+]2ccccc12` the T/C (dose: 5.0 mg/kg/injection, schedule: Q07DX002 (ip), vehicle: Klucel (hydroxypropylcellulose) (HPC)) was 111 % of control and 87 % of control, the T/C (dose: 10.0 mg/kg/injection, schedule: Q07DX002 (ip), vehicle: Klucel (hydroxypropylcellulose) (HPC)) was 77 % of control and the T/C (dose: 40.0 mg/kg/injection, schedule: Q07DX002 (ip), vehicle: Klucel (hydroxypropylcellulose) (HPC)) was 89 % of control.
In the case of `O=C(CCCN1CCC(O)(c2cccc(C(F)(F)F)c2)CC1)c1ccc(F)cc1`, the T/C (dose: 6.25 mg/kg/injection, schedule: Q07DX003 (ip), vehicle: Klucel (hydroxypropylcellulose) (HPC)) is reported as 78 % of control and 80 % of control, the T/C (dose: 12.5 mg/kg/injection, schedule: Q07DX003 (ip), vehicle: Klucel (hydroxypropylcellulose) (HPC)) is reported as 84 % of control and 95 % of control and the T/C (dose: 25.0 mg/kg/injection, schedule: Q07DX003 (ip), vehicle: Klucel (hydroxypropylcellulose) (HPC)) is reported as 113 % of control and 93 % of control. For the same compound, the T/C (dose: 50.0 mg/kg/injection, schedule: Q07DX003 (ip), vehicle: Klucel (hydroxypropylcellulose) (HPC)) was 100 % of control.
With `CCCCCCCCCCCCCC#CC(=O)O` the T/C (dose: 6.25 mg/kg/injection, schedule: Q07DX002 (ip), vehicle: saline with Tween-80) was 76 % of control, the T/C [1] was 92 % of control and the T/C [2] was 75 % of control. For the same compound, the T/C [3] was 84 % of control.
With `O=c1[nH]c(=O)n(C2CC(O)C(CO)O2)cc1I` (stereo unspecified) the T/C [3] was 79 % of control, the T/C [4] was 44 % of control and the T/C [5] was 69 % of control. For the same compound, the T/C [6] was 50 % of control, the T/C [7] was 102 % of control and the T/C [8] was 44 % of control. For the same compound, the T/C [9] was 57 % of control, the T/C (dose: 400.0 mg/kg/injection, schedule: Q07DX002 (ip), vehicle: saline with Tween-80) was 105 % of control and the T/C [10] was 44 % of control. For the same compound, the T/C [11] was 102 % of control, the T/C (dose: 800.0 mg/kg/injection, schedule: Q07DX002 (ip), vehicle: saline with Tween-80) was 75 % of control and the T/C (dose: 800.0 mg/kg/injection, schedule: Q07DX002 (ip), vehicle: saline) was 18 % of control. For the same compound, the T/C (dose: 800.0 mg/kg/injection, schedule: Q07DX002 (ip), vehicle: suspension in saline) was 59 % of control, the T/C (dose: 1600.0 mg/kg/injection, schedule: Q07DX002 (ip), vehicle: saline with Tween-80) was 48 % of control and the T/C (dose: 1600.0 mg/kg/injection, schedule: Q07DX002 (ip), vehicle: saline) was 1 % of control.
`Cc1ccc(NCCN(C)C)c2c(=O)c3cc(O)ccc3sc12` was tested, and the T/C [12] was 42 % of control and 48 % of control and the T/C [13] was 17 % of control.
`Ic1ncnc2c1ncn2C1CCCO1` (stereo unspecified) was tested, and the T/C (dose: 12.5 mg/kg/injection, schedule: Q07DX002 (ip), vehicle: Klucel (hydroxypropylcellulose) (HPC)) was 68 % of control and 70 % of control, the T/C (dose: 25.0 mg/kg/injection, schedule: Q07DX002 (ip), vehicle: Klucel (hydroxypropylcellulose) (HPC)) was 52 % of control and 68 % of control and the T/C [12] was 56 % of control and 80 % of control. The T/C [13] was 81 % of control and the T/C [14] was 55 % of control.
For `C1OC1CO[C@@H]1CO[C@H]2[C@@H]1OC[C@H]2OCC1CO1` (stereo partly specified), the T/C (dose: 12.5 mg/kg/injection, schedule: Q07DX003 (ip), vehicle: saline) was 47 % of control, the T/C (dose: 25.0 mg/kg/injection, schedule: Q07DX002 (ip), vehicle: suspension in saline) was 116 % of control and the T/C (dose: 25.0 mg/kg/injection, schedule: Q07DX003 (ip), vehicle: saline) was 82 % of control. For the same compound, the T/C (dose: 50.0 mg/kg/injection, schedule: Q07DX002 (ip), vehicle: suspension in saline) was 117 % of control, the T/C (dose: 50.0 mg/kg/injection, schedule: Q07DX003 (ip), vehicle: saline) was 83 % of control and the T/C (dose: 100.0 mg/kg/injection, schedule: Q07DX002 (ip), vehicle: suspension in saline) was 79 % of control. The T/C [9] was 98 % of control, the T/C (dose: 200.0 mg/kg/injection, schedule: Q07DX003 (ip), vehicle: saline) was 79 % of control and 94 % of control and the T/C [11] was 70 % of control.
With `O=Cc1ccc(C(Cl)(Cl)Cl)cc1` the T/C [1] was 47 % of control, the T/C (dose: 12.5 mg/kg/injection, schedule: Q07DX002 (ip), vehicle: saline) was 78 % of control and the T/C [2] was 74 % of control. For the same compound, the T/C (dose: 25.0 mg/kg/injection, schedule: Q07DX002 (ip), vehicle: saline) was 79 % of control, the T/C [4] was 74 % of control and the T/C [5] was 93 % of control. The T/C [6] was 88 % of control, the T/C [7] was 66 % of control and the T/C [8] was 67 % of control. For the same compound, the T/C [10] was 82 % of control.
`Cc1ccc(S(=O)(=O)NC(=O)C2C(=O)CC3(CCCCC3)CC2=O)cc1` was tested, and the T/C (dose: 50.0 mg/kg/injection, schedule: Q07DX002 (ip), vehicle: Klucel (hydroxypropylcellulose) (HPC)) was 104 % of control, the T/C [12] was 112 % of control and the T/C [13] was 95 % of control. The T/C [14] was 102 % of control.
